Results: ChEMBL document CHEMBL3045943, “Novel N-aryl(alkaryl)-2-[(3-R-2-oxo-2H-[1,2,4]triazino[2,3-c]quinazoline-6-yl)thio]acetamides: synthesis, cytotoxicity, anticancer activity, COMPARE analysis and docking” (2013)

Assays:
Assay type in all cases: functional
MDA-MB-435 = test: Cytotoxicity against Homo sapiens (human) MDA-MB-435 cells assessed as cell growth at 10 uM after 48 hr by SRB assay relative to control; conditions: MDA-MB-435, 48 h, read-out: Activity
SK-MEL-5 [1] = test: Cytotoxicity against Homo sapiens (human) SK-MEL-5 cells assessed as cell growth at 10 uM after 48 hr by SRB assay relative to control; conditions: SK-MEL-5, 48 h, read-out: Activity
MDA-MB-231 [2] = test: Cytotoxicity against Homo sapiens (human) MDA-MB-231 cells assessed as cell growth at 10 uM after 48 hr by SRB assay relative to control; conditions: MDA-MB-231, 48 h, read-out: Activity
RXF 393 = test: Cytotoxicity against Homo sapiens (human) RXF393 cells assessed as cell growth at 10 uM after 48 hr by SRB assay relative to control; conditions: RXF 393, 48 h, read-out: Activity
SNB-75 [3] = test: Cytotoxicity against Homo sapiens (human) SNB75 cells after 48 hr by SRB assay; conditions: SNB-75, 48 h
[4] = system: Photobacterium leiognathi; test: Growth inhibition of Photobacterium leiognathi Sh1 assessed as bio-luminescence at 0.1 mg/ml after 10 min by acute action test relative to control; parameters: scale not given: the % may be the effect or the level left
[5] = system: Photobacterium leiognathi; test: Growth inhibition of Photobacterium leiognathi Sh1 assessed as bio-luminescence at 0.025 mg/ml after 10 min by acute action test relative to control; parameters: scale not given: the % may be the effect or the level left
786-0 = test: Cytotoxicity against Homo sapiens (human) 786-0 cells assessed as cell growth at 10 uM after 48 hr by SRB assay relative to control; conditions: 786-0, 48 h, read-out: Activity
OVCAR-3 = test: Cytotoxicity against Homo sapiens (human) OVCAR3 cells assessed as cell growth at 10 uM after 48 hr by SRB assay relative to control; conditions: OVCAR-3, 48 h, read-out: Activity
OVCAR-8 = test: Cytotoxicity against Homo sapiens (human) OVCAR8 cells assessed as cell growth at 10 uM after 48 hr by SRB assay relative to control; conditions: OVCAR-8, 48 h, read-out: Activity
[6] = system: Photobacterium leiognathi; test: Growth inhibition of Photobacterium leiognathi Sh1 assessed as bio-luminescence at 0.025 mg/ml after 16 to 18 hr by chronic action test relative to control; parameters: scale not given: the % may be the effect or the level left
SF-539 = test: Cytotoxicity against Homo sapiens (human) SF539 cells assessed as cell growth at 10 uM after 48 hr by SRB assay relative to control; conditions: SF-539, 48 h, read-out: Activity
NCI-H460 [7] = test: Cytotoxicity against Homo sapiens (human) NCI-H460 cells assessed as cell growth at 10 uM after 48 hr by SRB assay relative to control; conditions: NCI-H460, 48 h, read-out: Activity
[8] = system: Photobacterium leiognathi; test: Growth inhibition of Photobacterium leiognathi Sh1 assessed as bio-luminescence at 0.25 mg/ml after 10 min by acute action test relative to control; parameters: scale not given: the % may be the effect or the level left
MCF7 = test: Cytotoxicity against Homo sapiens (human) MCF7 cells assessed as cell growth at 10 uM after 48 hr by SRB assay relative to control; conditions: MCF7, 48 h, read-out: Activity
UACC-62 = test: Cytotoxicity against Homo sapiens (human) UACC62 cells assessed as cell growth at 10 uM after 48 hr by SRB assay relative to control; conditions: UACC-62, 48 h, read-out: Activity
A549 = test: Cytotoxicity against Homo sapiens (human) A549 cells assessed as cell growth at 10 uM after 48 hr by SRB assay relative to control; conditions: A549, 48 h, read-out: Activity
HOP-62 = test: Cytotoxicity against Homo sapiens (human) HOP62 cells after 48 hr by SRB assay; conditions: HOP-62, 48 h; for TGI: read-out: pTGI (converted)
LOX IMVI = test: Cytotoxicity against Homo sapiens (human) LOXIMVI cells assessed as cell growth at 10 uM after 48 hr by SRB assay relative to control; conditions: read-out: Activity
[9] = Cytotoxicity against Homo sapiens (human) NCI-ADR-RES cells assessed as cell growth at 10 uM after 48 hr by SRB assay relative to control; conditions: read-out: Activity
SK-MEL-2 = test: Cytotoxicity against Homo sapiens (human) SK-MEL-2 cells assessed as cell growth at 10 uM after 48 hr by SRB assay relative to control; conditions: SK-MEL-2, 48 h, read-out: Activity
SNB-75 [10] = test: Cytotoxicity against Homo sapiens (human) SNB75 cells assessed as cell growth at 10 uM after 48 hr by SRB assay relative to control; conditions: SNB-75, 48 h, read-out: Activity
NCI-H522 [11] = test: Cytotoxicity against Homo sapiens (human) NCI-H522 cells assessed as cell growth at 10 uM after 48 hr by SRB assay relative to control; conditions: NCI-H522, 48 h, read-out: Activity
HCT-116 = test: Cytotoxicity against Homo sapiens (human) HCT116 cells assessed as cell growth at 10 uM after 48 hr by SRB assay relative to control; conditions: HCT-116, 48 h, read-out: Activity
SW-620 = test: Cytotoxicity against Homo sapiens (human) SW620 cells assessed as cell growth at 10 uM after 48 hr by SRB assay relative to control; conditions: SW-620, 48 h, read-out: Activity
A498 [12] = test: Cytotoxicity against Homo sapiens (human) A498 cells after 48 hr by SRB assay; conditions: A498, 48 h; for TGI: read-out: pTGI (converted)
U-251 [13] = test: Cytotoxicity against Homo sapiens (human) U251 cells after 48 hr by SRB assay; conditions: U-251, 48 h
MDA-MB-231 [14] = test: Cytotoxicity against Homo sapiens (human) MDA-MB-231 cells after 48 hr by SRB assay; conditions: MDA-MB-231, 48 h
OVCAR-4 = test: Cytotoxicity against Homo sapiens (human) OVCAR4 cells assessed as cell growth at 10 uM after 48 hr by SRB assay relative to control; conditions: OVCAR-4, 48 h, read-out: Activity
U-251 [15] = test: Cytotoxicity against Homo sapiens (human) U251 cells assessed as cell growth at 10 uM after 48 hr by SRB assay relative to control; conditions: U-251, 48 h, read-out: Activity
[16] = system: Photobacterium leiognathi; test: Growth inhibition of Photobacterium leiognathi Sh1 assessed as bio-luminescence at 0.25 mg/ml after 16 to 18 hr by chronic action test relative to control; parameters: scale not given: the % may be the effect or the level left
DU-145 = test: Cytotoxicity against Homo sapiens (human) DU145 cells assessed as cell growth at 10 uM after 48 hr by SRB assay relative to control; conditions: DU-145, 48 h, read-out: Activity
[17] = system: Photobacterium leiognathi; test: Growth inhibition of Photobacterium leiognathi Sh1 assessed as bio-luminescence at 0.1 mg/ml after 16 to 18 hr by chronic action test relative to control; parameters: scale not given: the % may be the effect or the level left
TK-10 = test: Cytotoxicity against Homo sapiens (human) TK10 cells assessed as cell growth at 10 uM after 48 hr by SRB assay relative to control; conditions: TK-10, 48 h, read-out: Activity
SK-MEL-5 [18] = test: Cytotoxicity against Homo sapiens (human) SK-MEL-5 cells after 48 hr by SRB assay; conditions: SK-MEL-5, 48 h
BT-549 = test: Cytotoxicity against Homo sapiens (human) BT549 cells assessed as cell growth at 10 uM after 48 hr by SRB assay relative to control; conditions: BT-549, 48 h, read-out: Activity
SF-268 = test: Cytotoxicity against Homo sapiens (human) SF268 cells assessed as cell growth at 10 uM after 48 hr by SRB assay relative to control; conditions: SF-268, 48 h, read-out: Activity
HT-29 = test: Cytotoxicity against Homo sapiens (human) HT-29 cells assessed as cell growth at 10 uM after 48 hr by SRB assay relative to control; conditions: HT-29, 48 h, read-out: Activity
NCI-H460 [19] = test: Cytotoxicity against Homo sapiens (human) NCI-H460 cells after 48 hr by SRB assay; conditions: NCI-H460, 48 h
NCI-H522 [20] = test: Cytotoxicity against Homo sapiens (human) NCI-H522 cells after 48 hr by SRB assay; conditions: NCI-H522, 48 h
COLO 205 = test: Cytotoxicity against Homo sapiens (human) COLO205 cells assessed as cell growth at 10 uM after 48 hr by SRB assay relative to control; conditions: COLO 205, 48 h, read-out: Activity
KM12 = test: Cytotoxicity against Homo sapiens (human) KM12 cells assessed as cell growth at 10 uM after 48 hr by SRB assay relative to control; conditions: KM12, 48 h, read-out: Activity
A498 [21] = test: Cytotoxicity against Homo sapiens (human) A498 cells assessed as cell growth at 10 uM after 48 hr by SRB assay relative to control; conditions: A498, 48 h, read-out: Activity
CAKI-1 = test: Cytotoxicity against Homo sapiens (human) Caki1 cells assessed as cell growth at 10 uM after 48 hr by SRB assay relative to control; conditions: CAKI-1, 48 h, read-out: Activity
ACHN = test: Cytotoxicity against Homo sapiens (human) ACHN cells assessed as cell growth at 10 uM after 48 hr by SRB assay relative to control; conditions: read-out: Activity
UO-31 = test: Cytotoxicity against Homo sapiens (human) UO31 cells assessed as cell growth at 10 uM after 48 hr by SRB assay relative to control; conditions: UO-31, 48 h, read-out: Activity
[22] = read-out: pLC50 (the source's name) (converted)

Structure (SMILES): O=C(CSc1nc2ccccc2c2nc(=O)c(-c3ccccc3)nn12)NCc1ccccc1F
- growth at 10 µM (MDA-MB-435): 49.6%
- growth at 10 µM (SK-MEL-5 [1]): 47.3%
- growth at 10 µM (MDA-MB-231 [2]): 48.9%
- growth at 10 µM (RXF 393): 42.3%
- GI50 (SNB-75 [3]): 1.82 µM
- LC50 (SNB-75 [3]): > 100 µM
- TGI (SNB-75 [3]; read-out: pTGI (converted)): > 100 µM
- Activity [4]: 125%
- Activity [5]: 118.8%
- growth at 10 µM (786-0): 16.5%
- growth at 10 µM (OVCAR-3): 9.5%
- growth at 10 µM (OVCAR-8): 36.2%
- Activity [6]: 90.6%
- growth at 10 µM (SF-539): 20.9%
- growth at 10 µM (NCI-H460 [7]): 5.5%
- Activity [8]: 100%
- growth at 10 µM (MCF7): 38.2%
- growth at 10 µM (UACC-62): 41.2%
- growth at 10 µM (A549): 26%
- GI50 (HOP-62): 2.82 µM
- LC50 (HOP-62): > 100 µM
- TGI (HOP-62): > 100 µM
- growth at 10 µM (LOX IMVI): 50.5%
- growth at 10 µM [9]: 38.8%
- growth at 10 µM (SK-MEL-2): 50.3%
- growth at 10 µM (SNB-75 [10]): 15.8%
- growth at 10 µM (NCI-H522 [11]): 34.5%
- growth at 10 µM (HCT-116): 34.5%
- growth at 10 µM (SW-620): 31%
- GI50 (A498 [12]): 1.29 µM
- LC50 (A498 [12]): > 100 µM
- TGI (A498 [12]): > 100 µM
- GI50 (U-251 [13]): 2.69 µM
- LC50 (U-251 [13]): > 100 µM
- TGI (U-251 [13]; read-out: pTGI (converted)): > 100 µM
- GI50 (MDA-MB-231 [14]): 2.69 µM
- CC50 (MDA-MB-231 [14]; [22]): > 100 µM
- TGI (MDA-MB-231 [14]; read-out: pTGI): > 100 µM
- growth at 10 µM (OVCAR-4): -39.5%
- growth at 10 µM (U-251 [15]): 2.29%
- Activity [16]: 54.5%
- growth at 10 µM (DU-145): 35.9%
- Activity [17]: 75%
- growth at 10 µM (TK-10): 46.3%

Structure (SMILES): O=C(CSc1nc2ccccc2c2nc(=O)c(-c3ccccc3)nn12)NCc1ccc(F)cc1
- GI50 (SK-MEL-5 [18]): 3.02 µM
- LC50 (SK-MEL-5 [18]): > 100 µM
- TGI (SK-MEL-5 [18]; read-out: pTGI): > 100 µM
- growth at 10 µM (SK-MEL-5 [1]): 17.9%
- growth at 10 µM (MDA-MB-231 [2]): 15.7%
- growth at 10 µM (BT-549): 45.9%
- Activity [4]: 78.8%
- Activity [5]: 77.8%
- growth at 10 µM (SF-268): 51.2%
- Activity [6]: 90.9%
- growth at 10 µM (SF-539): 30.8%
- growth at 10 µM (NCI-H460 [7]): -25.4%
- Activity [8]: 91.7%
- growth at 10 µM (HT-29): 30.9%
- GI50 (NCI-H460 [19]): 2.57 µM
- CC50 (NCI-H460 [19]; [22]): > 100 µM
- TGI (NCI-H460 [19]; read-out: pTGI): > 100 µM
- GI50 (HOP-62): 1.74 µM
- LC50 (HOP-62): > 100 µM
- TGI (HOP-62): 6.92 µM
- GI50 (NCI-H522 [20]): 2.51 µM
- CC50 (NCI-H522 [20]; [22]): > 100 µM
- TGI (NCI-H522 [20]; read-out: pTGI (converted)): 31.6 µM
- growth at 10 µM (SNB-75 [10]): 44.3%
- growth at 10 µM (COLO 205): 30.8%
- growth at 10 µM (HCT-116): 38.9%
- growth at 10 µM (SW-620): 45.7%
- GI50 (A498 [12]): 1.12 µM
- LC50 (A498 [12]): > 100 µM
- TGI (A498 [12]): 34.7 µM
- growth at 10 µM (KM12): 9.97%
- growth at 10 µM (U-251 [15]): 19.9%
- growth at 10 µM (A498 [21]): 24.8%
- Activity [16]: 166.7%
- growth at 10 µM (CAKI-1): -5.36%
- Activity [17]: 76.9%
- growth at 10 µM (ACHN): 43.7%
- growth at 10 µM (UO-31): 12.7%
